Test results reported in patent US11365217B2, “Peptides for treating telomere dysfunction-associated diseases and uses thereof” (priority 2018, dated 2022).
Entries after “also recorded” stand apart in the source; their conditions may differ. Non-standard residues stand in square brackets, D forms with d. No end group written: not given here.

Key:
[1] = system: Human cervical carcinoma cells Hela; test: Telomere DNA damage in Hela cells under X-ray irradiation, detected by FISH; type: cell-based; conditions: peptide 4 h; for telomere DNA damage caused by irradiation of X rays: 5-Gy X ray for 1 h
Protocol: Human cervical carcinoma cells Hela were respectively treated with various peptides (as shown in SEQ ID NOs:1-26 in Table 1) for 4 h, and then the cells treated with the same peptide were divided into two groups, which were respectively subjected to 0-Gy and 5-Gy irradiation of X ray for 1 h and detected for telomere DNA damage using fluorescence in situ hybridization (FISH).

[2] = system: carbon tetrachloride-induced liver fibrosis in C57BL/6 mice; test: DST8 in carbon tetrachloride-induced liver fibrosis in mice; type: in vivo; conditions: 1 mg/kg intraperitoneal weekly, 4 weeks, Masson staining and Western Blot, control GE8
Protocol: 12 6 week old wild female C57BL/6 mice were equally divided into four groups, where two groups of mice were intraperitoneally injected with a solution of 10% carbon tetrachloride in olive oil three times a week (on every Monday, Wednesday and Friday, 5 μL per gram of body weight), and the other two groups of mice were intraperitoneally injected with an equal amount of olive oil as control. The two groups injected with carbon tetrachloride were intraperitoneally injected with DST8 (SerArgAsnGlyThrGluGluThr, in D-amino acids), 1 mg per kilogram of body weight) and GE8 (SEQ ID NO:24), respectively, 4 hours before the first injection of carbon tetrachloride in each week. The two control groups were also intraperitoneally injected with DST8 (1 mg per kilogram of body weight) and GE8, respectively, 4 hours before the first injection of olive oil in each week. After 4 consecutive weeks of administration, the liver was isolated, embedded with paraffin, sectioned and subjected to Masson staining and Western Blot analysis.

[3] = system: bleomycin-induced pulmonary fibrosis in mice; test: ST8 in bleomycin-induced pulmonary fibrosis in mice (intratracheal perfusion); type: in vivo
Protocol: 4 hours later, the mice were all intratracheally perfused with bleomycin (3 mg per kilogram of body weight), and 21 days after the perfusion of peptide, the mice were subjected to endotracheal intubation for the detection of respiratory function. The type II cells were sorted by flow cytometry and calculated for the proportion. The lung tissue RNA was extracted and subjected to real-time quantitative PCR for the detection of mRNA expression of NG2, […], s100a4, α-SMA and Col6a, and the lung proteins were also extracted and detected by Western Blot for the expression of FBW7, TPP1, α-SMA and internal reference GAPDH. The lung tissues were embedded with paraffin, sectioned, subjected to Masson and H&E staining and detected by immunofluorescence assay for the expression of α-SMA. Moreover, 10 mg of lung tissues were employed for the determination of hydroxyproline content; and the telomere length of type II cells (SPC+telomere probe) was detected by FISH.

[4] = system: mice with overexpression of FBW7 in lung tissues; test: ST8 in mice intratracheally perfused with FBW7-lentivirus (overexpression of FBW7 in lung); type: in vivo; conditions: control GE8
Protocol: 4 hours later, the two groups of mice perfused with ST8 were respectively intratracheally perfused with a control- or FBW7-lentivirus, and the two groups of mice perfused with GE8 were also respectively intratracheally perfused with the control- or FBW7-lentiviruses. The perfusion was performed every other 4 days in a total number of 4. On the fourth day after the fourth perfusion, the mice were subjected to endotracheal intubation for the detection of respiratory function. The type II cells were sorted by flow cytometry and calculated for the proportion. The lung tissue RNA was extracted and subjected to real-time quantitative PCR for the detection of mRNA expression of α-SMA, Col6a, and MMP3, and the lung proteins were also extracted and detected by Western Blot for the expression of FBW7, TPP1, SPC, α-SMA and internal reference GAPDH. The lung tissues were embedded with paraffin, sectioned, subjected to Masson and H&E staining and detected by immunofluorescence assay for the expression of α-SMA. Moreover, the proportion of lung type II epithelial cells (SPC positive cells) was obtained by immunofluorescence assay; and the telomere length of type II cells (SPC+telomere probe) was detected by FISH.

[5] = system: mice under X-ray irradiation; test: DYK21 applied to dorsal skin of mice with or without X-ray irradiation (skin aging, weight loss, premature death)
From the text: 48 2-4 month old wild mice were equally divided into four groups, and the hair in a 2 cm×2 cm region on the back of each of the mice was removed. […] The mice were photographed and weighed every day, and sacrificed on the 8th day to collect the skin tissues.

[6] = system: bleomycin-induced pulmonary fibrosis in mice; test: YK21 in bleomycin-induced pulmonary fibrosis in mice (intratracheal perfusion); type: in vivo
Protocol: The time program of this experiment was shown in FIG. 1E, specifically, 4 hours later, the mice were all intratracheally perfused with bleomycin (3 mg per kilogram of body weight), and 20 hours after the perfusion of bleomycin, two groups of mice were respectively received a second perfusion of YK21 and a second perfusion of YK21h. After 21 days of the first perfusion of peptide, the mice were all subjected to endotracheal intubation for the detection of respiratory function, and the lung tissue RNA was extracted and subjected to real-time quantitative PCR to detect the mRNA expression of TPP1 and SPC. The lung tissues were embedded with paraffin, sectioned, subjected to Masson and H&E staining and detected by immunofluorescence assay for the expression of α-SMA. Moreover, 10 mg of lung tissues were employed for the determination of hydroxyproline content; and the telomere length of alveolar epithelial type II stem cells (SPC+telomere probe) and the telomere DNA damage in lung tissues (53BP1+telomere probe) were detected by FISH.

[7] = dorsal skin application 7 days, 4-Gy X-ray daily, compared to DCTL1
[8] = lung tissue mRNA, real-time quantitative PCR, bleomycin mice, vs YK21h

## KTEETGNRSGRRRQRRKKRGY [DKY21]
[1]
  telomere DNA damage caused by irradiation of X rays: inhibitory effect

## SRNGTEET [DST8]
[2]
  liver fibrosis caused by carbon tetrachloride: prevent the liver fibrosis; also recorded: significantly inhibit

## SRNGTEET [ST8]
[3]; 1 mg/kg intratracheal, bleomycin 3 mg/kg, day 21, control GE8
  respiratory dysfunction in mice caused by bleomycin: alleviate
[3]; FISH, bleomycin mice, control GE8
  telomere length of type II cells: extend the telomere
[3]; Masson, H&E, α-SMA, fibrosis marker mRNA, control GE8
  bleomycin-induced pulmonary fibrosis in mice: inhibitory effect
[3]; Western Blot, bleomycin mice, control GE8
  FBW7 expression in lung: inhibit FBW7
[3]; flow cytometry, bleomycin mice, control GE8
  proportion of lung type II epithelial cells: improved
[4]; 1 mg/kg intratracheal, FBW7-lentivirus perfused 4 times
  respiratory dysfunction caused by the overexpression of FBW7: significant role in alleviating
[4]; FBW7-lentivirus mice
  decrease in the proportion of type II epithelial cells caused by the overexpression of FBW7: significant role in alleviating
  pulmonary fibrosis caused by the overexpression of FBW7: significant role in alleviating
  reduction in the expression of TPP1 caused by the overexpression of FBW7: significant role in alleviating
[4]; FISH, FBW7-lentivirus mice
  telomere shortening caused by the overexpression of FBW7: significant role in alleviating
[1]
  telomere DNA damage caused by irradiation of X rays: significantly inhibiting

## TyrGlyArgLysLysArgArgGluArgArgArgGlySerArgAsnGlyThrGluGluThrLys [DYK21] ([dY]G[dR][dK][dK][dR][dR][dE][dR][dR][dR]G[dS][dR][dN]G[dT][dE][dE][dT][dK])
[5]; H&E and Masson staining, 4-Gy X-ray daily for 7 days, vs DCTL1
  skin damage and fibrous tissue proliferation (skin fibrosis) caused by X-ray irradiation: completely free of skin fibrosis; also recorded: significant inhibitory effect
[5]; application to the dorsal skin of mice
  number of dermal stem cells: significant increase
[5]; application to the dorsal skin of mice, irradiation not mentioned
  number of hair follicles: significant increase
[5]; compared to DCTL1
  acute death caused by X-ray irradiation: alleviated the acute death to some extent
  life span under X-ray irradiation: prolonged the life of some mice
  weight loss caused by X-ray irradiation: inhibited the weight loss
[5]; [7]
  body weight: larger in body weight
  number of hair follicles: more hair follicles
[5]; skin, X-ray irradiation, vs DCTL1
  fibrosis area: smaller fibrosis area
[1]
  telomere DNA damage caused by irradiation of X rays: inhibitory effect

## YGRKKRRERRRGSRNGTEETK
[1]; 0-Gy
  telomere DNA damage at a basic level: significantly reduce
[1]
  telomere DNA damage caused by irradiation of X rays: completely inhibit
[6]; 1 mg/kg intratracheal, bleomycin 3 mg/kg, day 21, compared to control peptide YK21h
  respiratory function in mice: improve the lung respiratory function; also recorded: significantly improve
[6]; 1 mg/kg intratracheal, bleomycin 3 mg/kg, day 21, hydroxyproline, Masson, H&E, α-SMA, vs YK21h
  pulmonary fibrosis induced by bleomycin: prevent the lung aging damage and pulmonary fibrosis; also recorded: inhibit
[6]; FISH (SPC+telomere probe), bleomycin mice, vs YK21h
  telomere length of type II epithelial cells: extend telomere length; also recorded: increase
[6]; intratracheal administration to mice in one time
  number of lung stem cells: increase the number of lung stem cells
[6]; [8]
  expression of SPC: increase
  expression of TPP1: increase
